Measurements from patent US9328118B2, “Nitrogen-containing bicyclic aromatic heterocyclic compound” (ASTELLAS PHARMA INC., priority 2012, dated 2016).
Structures can show the parent of a compound that is named as a salt. Where two headings read alike, the source gives them in different places.

Experiments:
[1] = system: MHC class II expression in B220 positive B cells of mouse spleen cells; assay: In vitro MHC class II expression inhibitory effect using mouse spleen cells (LPS-stimulated B cells, flow cytometry); type: cell-based, C57BL/6 mice; details: B-cell, read-out: IC50 value of MHC class II expression inhibition (Data 2)
Method: Test Example 2 Evaluation of In Vitro MHC Class II Expression Inhibitory Effect Using Mouse Spleen Cells (Cell Evaluation System)
In antigen-presenting cells, the inhibition of cathepsin S inhibits the expression of MHC class II molecules. […] For an increased expression of MI-IC class II in B cells, the inhibitory effect of the compound represented by formula (I) was examined.
First, spleen cells collected from C57BL/6 mice were seeded in a 96-well plate so as to be a 1×10^5 cells/well, then, 5-fold dilution of 10 mM DMSO solution of the test compound was serially performed with RPMI 1640 medium (including 10% fetal bovine serum (FCS), 5×10^−5 M 2-mercaptoethanol, 50 IU/mL penicillin and 50 μg/mL streptomycin) nine times such that the final concentration becomes 0.026 nM to 10 μM, and the resultant products were added thereto (the final DMSO concentration was 0.1%). At the same time, LPS (Sigma L4005) was added to the wells such that the final concentration becomes 2 μg/mL, and culture was performed at 37° C. for 48 hours in 5% CO2. After culturing, the cells were stained at 4° C. for 20 minutes with PE-labeled streptavidin (BD BIOSCIENCE 554061) and biotin-labeled YAe antibody (EBIOSCIENCE 13-5741-85) together with FITC-labeled anti-mouse B220 antibody (BD BIOSCIENCE 553088), and an expression level (fluorescence intensity of YAe-biotin/streptavidin-PE) of MHC class II to which Ea peptide in B220 positive B cells was bonded was measured using a flow cytometry system (Guava EasyCyte Plus System, manufactured by Millipore Corporation). A value at the time of unstimulation of LPS in which the test compound was not added and a value at the time of stimulation of LPS in which the test compound was not added were set to 100% inhibition and 0% inhibition, respectively, then, an inhibition rate at each concentration was determined, and IC50 values were calculated by a linear regression method. In the Table, Ex represents Example compound No., and Data 2 represents an IC50 value (nM).

human cathepsin S = human cathepsin S (Homo sapiens (Human), UniProt P25774); assay: In vitro human cathepsin S inhibitory activity (VVR-AMC fluorescence); type: biochemical; details: human cathepsin S enzyme, substrate VVR-AMC 40 μM, pH 4.5, 37° C.; read-out: IC50 value of the human cathepsin S inhibitory activity (Data 1)
Method: Test Example 1 Measurement of a In Vitro Human Cathepsin S Inhibitory Activity
5 μL of a human cathepsin S enzyme (R&D1183-CY-010) was added to a 96-well plate so as to be 20 ng/well. […] A reaction rate at the time of not adding an enzyme in which the test compound was not added and a reaction rate at the time of adding an enzyme in which the test compound was not added were set to 100% inhibition and 0% inhibition, respectively, then, an inhibition rate at each concentration was determined, and IC50 values were calculated by a linear regression method. In the Table, Ex represents Example compound No., and Data 1 represents an IC50 value (nM) of the human cathepsin S inhibitory activity.

[2] = C57BL/6 spleen cells, LPS 2 μg/mL, 48 hours, B220 positive B cells

Chain of human cathepsin S (P25774 115-331): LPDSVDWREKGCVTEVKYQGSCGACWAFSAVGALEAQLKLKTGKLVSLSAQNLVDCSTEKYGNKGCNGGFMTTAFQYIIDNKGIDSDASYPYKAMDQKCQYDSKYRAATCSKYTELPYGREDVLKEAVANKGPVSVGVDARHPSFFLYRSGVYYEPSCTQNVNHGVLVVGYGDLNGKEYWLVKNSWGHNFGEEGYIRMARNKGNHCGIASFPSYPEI

| Structure (SMILES) | IC50 [1, 2] | IC50 (human cathepsin S) | IC50 ([1]; 48 h) |
| --- | --- | --- | --- |
| CN(C)C(=O)CN1CCC(CCOc2ccc(-c3nc(C#N)nc4c3ccn4C)cc2C(F)(F)F)CC1 [Example 3, 2-(4-{2-[4-(2-cyano-7-methyl-7H-pyrrolo[2,3-d]pyrimidin-4-yl)-2-(trifluoromethyl)phenoxy]ethyl}piperidin-1-yl)-N,N-dimethylacetamide] | 1 nM | 2.6 nM |  |
| CN1CCC[C@@H]1C(=O)N1CCC(CCOc2ccc(-c3nc(C#N)nc4c3ncn4C)cc2C(F)(F)F)CC1 [Example 6, 9-methyl-6-[4-{2-[1-(1-methyl-D-prolyl)piperidin-4-yl]ethoxy}-3-(trifluoromethyl)phenyl]-9H-purine-2-carbonitrile] | 0.69 nM | 3.4 nM |  |
| CN1CCC[C@H]1C(=O)N1CCC(CCOc2ccc(-c3nc(C#N)nc4c3ccn4CC3CCCO3)cc2C(F)(F)F)CC1 (stereo partly drawn) [Example 15, 4-[4-{2-[1-(1-methyl-L-prolyl)piperidin-4-yl]ethoxy}-3-(trifluoromethyl)phenyl]-7-(tetrahydrofuran-2-ylmethyl)-7H-pyrrolo[2,3-d]pyrimidine-2-carbonitrile monohydrochloride] | 2.1 nM | 3.4 nM |  |
| Cn1cnc2c(-c3ccc(OCCC4CCNCC4)c(C(F)(F)F)c3)nc(C#N)nc21 [Example 19] | 0.7 nM |  |  |
| CN(C)C(=O)CN1CCC(CCOc2ccc(-c3nc(C#N)nc4c3ccn4CCO)cc2C(F)(F)F)CC1 [Example 21] | 1 nM |  |  |
| N#Cc1nc(-c2ccc(OCCC3CCNCC3)c(C(F)(F)F)c2)c2ccn(CC3CCOC3)c2n1 (stereo not shown) [Example 23] | 3 nM |  |  |
| Cn1cnc2c(-c3ccc(OCCC4CCN(CCO)CC4)c(C(F)(F)F)c3)nc(C#N)nc21 [Example 24] | 0.8 nM |  |  |
| CCN1CCC(CCOc2ccc(-c3nc(C#N)nc4c3ncn4C)cc2C(F)(F)F)CC1 [Example 26] | 0.61 nM |  |  |
| CCN1CCC(CCOc2ncc(-c3nc(C#N)nc4c3ccn4C)cc2C(F)(F)F)CC1 [Example 27] | 1.3 nM |  |  |
| CN1CCC[C@H]1C(=O)N1CCC(CCOc2ccc(-c3nc(C#N)nc4c3ncn4C)cc2C(F)(F)F)CC1 [Example 29] | 0.66 nM |  |  |
| CN1CCC[C@H]1C(=O)N1CCC(CCOc2ccc(-c3nc(C#N)nc4c3ccn4CC3CCOC3)cc2C(F)(F)F)CC1 (stereo partly shown) [Example 30] | 0.97 nM |  |  |
| CN1CCC[C@H]1C(=O)N1CCC(CCOc2ncc(-c3nc(C#N)nc4c3ncn4C)cc2C(F)(F)F)CC1 [Example 40] | 0.85 nM |  |  |
| CN1CCC[C@H]1C(=O)N1CCC(CCOc2ncc(-c3nc(C#N)nc4c3ccn4C)cc2C(F)(F)F)CC1 [Example 41] | 1.1 nM |  |  |
| CN1CCC(NC(=O)Cn2ccc3c(-c4ccc(OCCC5CCOCC5)c(C(F)(F)F)c4)nc(C#N)nc32)CC1 [Example 47] |  | 2.1 nM | 2 nM |
| CCN1CCC(CCOc2ncc(-c3nc(C#N)nc4c3ccn4CC3CCOC3)cc2C(F)(F)F)CC1 (stereo not shown) [Example 52] | 1.8 nM |  |  |
| CCN1CCC(CCOc2ccc(-c3nc(C#N)nc4c3ccn4CC3CCOC3)cc2C(F)(F)F)CC1 (stereo not shown) [Example 54] | 0.94 nM |  |  |
| N#Cc1nc(-c2ccc(OCCC3CCNCC3)c(C(F)(F)F)c2)c2ccn(CC3CCCO3)c2n1 (stereo not shown) [Example 58] | 2 nM |  |  |
| CN(C)C(=O)CN1CCC(CCOc2ccc(-c3nc(C#N)nc4c3ccn4CC3CCOC3)cc2C(F)(F)F)CC1 (stereo not shown) [Example 66] | 2.1 nM |  |  |
| Cn1cnc2c(-c3cnc(OCCC4CCN(C(CF)CF)CC4)c(C(F)(F)F)c3)nc(C#N)nc21 [Example 145] |  | 1 nM |  |

Further lines, with some results ahead:

| IC50 [1, 2] | IC50 (human cathepsin S) | Structure (SMILES) | IC50 ([1]; 48 h) |
| --- | --- | --- | --- |
| 0.76 nM |  | CCN1CCC(CCOc2ccc(-c3nc(C#N)nc4c3ncn4CC3CCOC3)cc2C(F)(F)F)CC1 (stereo not shown) [Example 70] |  |
| 1.3 nM |  | CCN1CCC(CCOc2ncc(-c3nc(C#N)nc4c3ncn4CC3CCOC3)cc2C(F)(F)F)CC1 (stereo not shown) [Example 71] |  |
| 0.73 nM |  | CN(C)C(=O)CN1CCC(CCOc2ccc(-c3nc(C#N)nc4c3ncn4C)cc2C(F)(F)F)CC1 [Example 72] |  |
| 1.5 nM | 2.7 nM | CN1CCC[C@H]1C(=O)N1CCC(CCOc2ccc(-c3nc(C#N)nc4c3ncn4CC3CCOC3)cc2C(F)(F)F)CC1 (stereo partly shown) [Example 77] |  |
| 2.5 nM |  | CN1CCC[C@H]1C(=O)N1CCC(CCOc2ncc(-c3nc(C#N)nc4c3ncn4CC3CCOC3)cc2C(F)(F)F)CC1 (stereo partly shown) [Example 79] |  |
| 2.3 nM |  | CCN1CCC(CCOc2ccc(-c3nc(C#N)nc4c3ccn4CC3CCCO3)cc2C(F)(F)F)CC1 (stereo not shown) [Example 88] |  |
| 0.91 nM |  | CN1CCC[C@H]1C(=O)N1CCC(COc2ccc(-c3nc(C#N)nc4c3ccn4CC3CCOC3)cc2C(F)(F)F)CC1 (stereo partly shown) [Example 105] |  |
| 3.2 nM |  | CCN1CCC(COc2ccc(-c3nc(C#N)nc4c3ccn4CC3CCOC3)cc2C(F)(F)F)CC1 (stereo not shown) [Example 106] |  |
| 0.91 nM |  | CCN1CCC(CCOc2ccc(-c3nc(C#N)nc4c3ccn4CCO)cc2C(F)(F)F)CC1 [Example 110] |  |
| 1.8 nM |  | Cn1ccc2c(-c3cnc(OCCC4CCNCC4)c(C(F)(F)F)c3)nc(C#N)nc21 [Example 116] |  |
| 1 nM |  | Cn1cnc2c(-c3ccc(OCCC4CCN(CC(=O)N5CCC(C#N)CC5)CC4)c(C(F)(F)F)c3)nc(C#N)nc21 [Example 120] |  |
| 0.87 nM |  | Cn1cnc2c(-c3ccc(OCCC4CCN(CC(=O)N5CC[C@H](F)C5)CC4)c(C(F)(F)F)c3)nc(C#N)nc21 [Example 122] |  |
| 0.89 nM |  | Cn1ccc2c(-c3cnc(OCC4CCN(C(=O)C5CCN(CC(C)(C)O)CC5)CC4)c(C(F)(F)F)c3)nc(C#N)nc21 [Example 135, 4-{6-[(1-{[1-(2-hydroxy-2-methylpropyl)piperidin-4-yl]carbonyl}piperidin-4-yl)methoxy]-5-(trifluoromethyl)pyridin-3-yl}-7-methyl-7H-pyrrolo[2,3-d]pyrimidine-2-carbonitrile] |  |
| 0.65 nM |  | Cn1cnc2c(-c3cnc(OCCC4CCN(C5CCC5)CC4)c(C(F)(F)F)c3)nc(C#N)nc21 [Example 141] |  |
|  | 1.5 nM | CN1CCC[C@@H]1C(=O)N1CC[C@H](OCCOc2ncc(-c3nc(C#N)nc4c3ccn4C)cc2C(F)(F)F)C1 [Example 143, 7-methyl-4-[6-(2-{[(3S)-1-(1-methyl-D-prolyl)pyrrolidin-3-yl]oxy}ethoxy)-5-(trifluoromethyl)pyridin-3-yl]-7H-pyrrolo[2,3-d]pyrimidine-2-carbonitrile monofumarate] |  |
|  | 2.8 nM | CC(C)CN1CCC(CCOc2ncc(-c3nc(C#N)nc4c3ncn4C)cc2C(F)(F)F)CC1 [Example 144] |  |
|  | 3.2 nM | Cn1cnc2c(-c3cnc(OCCC4CCN(C(C)(C)C)CC4)c(C(F)(F)F)c3)nc(C#N)nc21 [Example 146] |  |
|  | 2.4 nM | Cn1ccc2c(-c3cnc(OCCOC4CCNCC4)c(C(F)(F)F)c3)nc(C#N)nc21 [Example 147] |  |
|  | 2.8 nM | Cn1ccc2c(-c3cnc(OCCO[C@H]4CCNC4)c(C(F)(F)F)c3)nc(C#N)nc21 [Example 148] |  |
|  | 2.7 nM | CN1CCC[C@H]1C(=O)N1CCC(OCCOc2ncc(-c3nc(C#N)nc4c3ccn4C)cc2C(F)(F)F)CC1 [Example 149] |  |
|  | 1.7 nM | CN1CCC[C@H]1C(=O)N1CC[C@H](OCCOc2ncc(-c3nc(C#N)nc4c3ccn4C)cc2C(F)(F)F)C1 [Example 150] |  |
|  | 1.6 nM | Cn1ccc2c(-c3cnc(OCC4CCNCC4)c(C(F)(F)F)c3)nc(C#N)nc21 [Example 153] |  |
|  | 2.4 nM | Cn1ccc2c(-c3cnc(OCC4CCN(C(=O)[C@@H]5CCCN5)CC4)c(C(F)(F)F)c3)nc(C#N)nc21 [Example 154] |  |
|  | 1.5 nM | Cn1ccc2c(-c3cnc(OCC4CCN(CC(C)(C)O)CC4)c(C(F)(F)F)c3)nc(C#N)nc21 [Example 155] |  |
|  | 2.4 nM | CC(C)N1CCC[C@H]1C(=O)N1CCC(COc2ncc(-c3nc(C#N)nc4c3ccn4C)cc2C(F)(F)F)CC1 [Example 156] |  |
|  | 2.1 nM | CN1CCC[C@H]1C(=O)N1CC[C@@H](OCCOc2ncc(-c3nc(C#N)nc4c3ccn4C)cc2C(F)(F)F)C1 [Example 157] |  |
|  | 2.7 nM | Cn1ccc2c(-c3cnc(OCC4CCN(C(=O)C5CCNCC5)CC4)c(C(F)(F)F)c3)nc(C#N)nc21 [Example 159] |  |
|  | 2.4 nM | Cn1ccc2c(-c3cnc(OCC4CCN(C(=O)C5CCN(C6CCOCC6)CC5)CC4)c(C(F)(F)F)c3)nc(C#N)nc21 [Example 160] |  |
